# According to article PMC7221793, “Metabolism and Pharmacokinetics of SP-8356, a Novel (1S)-(−)-Verbenone Derivative, in Rats and Dogs and Its Implications in Humans” (Molecules, 2020):
# Read-outs that look alike come from different tables or passages of the source.
# Tests used:
# [1] = Bioactivation studies in rat liver S9 fraction; assay type: in vitro ADME; details: rat liver S9 1 mg/mL; for remaining at 1 h, 5 µM: Sprague-Dawley, rat, liver S9 fraction, read-out: SP-8356 (% Remaining at 60 min)
# Procedure: SP-8356 was incubated with 1 mg/mL rat liver S9 fraction in 0.1 M potassium phosphate buffer (pH 7.4) in the absence and presence of GSH, AA, NADPH, UDPGA, PAPS and SAM. The final reaction mixture contained 5 µM SP-8356, 8 mM MgCl2, 25 µg/mL alamethicin and 1 mM cofactor in final volume of 160 µL. The reaction was initiated by adding a 10 mM cofactor solution prepared in 0.1 M potassium phosphate buffer (pH 7.4), following a 5 min preincubation of the incubation mixture at 37 °C. The final study groups were as follows: no cofactor (control), AA, NADPH, GSH, GSH + AA, GSH + NADPH and GSH + UDPGA + PAPS + SAM. The reaction was quenched at (0 and 60) min by adding 160 µL of ice-cold acetonitrile containing HSDH (1 µg/mL). Following a brief vortexing and sonication, the mixtures were centrifuged at 3,000 rpm at 4 °C for 20 min. The supernatant mixed with the same volume of deionized water on an Agilent 96-well plate was analyzed by Agilent 6530 Q-TOF LC-MS/MS system equipped with dual AJS ESI ion source and Agilent 1200 series HPLC system, as follows.
# Chromatographic separation was performed on a Phenomenex Kinetex C18 column (50 mm × 2.1 mm, 2.6 µm) (USA) with 0.1 vol.% formic acid in deionized water (A) and 0.1 vol.% formic acid in acetonitrile (B) running at 0.45 mL/min in the following gradient elution: 2 vol.% B for the initial 2 min, linear gradient to 95 vol.% B for 1 min and maintaining 95 vol.% B for 5 min. The injection volume was 5 μL and the column temperature was set at 50 °C. The ion source and mass analyzer parameters of the mass spectrometer were the same as in Section 4.4. LC-MS chromatograms and mass spectra were extracted using Agilent MassHunter Qualitative Analysis software (version B.05.00) (Santa Clara, CA, USA).
# [2] = In vivo metabolite identification, pooled rat plasma (Q-TOF LC-MS/MS); details: i.v. SP-8356 20 mg/kg
# Procedure: (§1) Plasma samples from the i.v. administrations described in Section 4.2 and Section 4.3 were used in this study. Plasma samples pooled at each time point were subjected to sample preparation as described in Section 4.2. The prepared samples were analyzed by Agilent 6530 Q-TOF LC-MS/MS system equipped with dual AJS ESI ion source and Agilent 1200 series HPLC system as described below.
# (§2) Chromatographic separation was achieved on an Agilent Eclipse C18 column (2.1 mm × 100 mm, 3.5 µm) by a gradient elution with a mobile phase consisting of 0.1 vol.% formic acid in water (A) and 0.1 vol.% formic acid in acetonitrile (B) at 50 °C: starting with 5 vol.% B for 2 min, ramping to 95 vol.% B over 1 min, maintaining for 3 min. The mobile phase flow rate was kept at 0.45 mL/min throughout the run. The sample injection volume was 5 µL. Ion source parameters were set as follows: capillary voltage, 3500 V; drying gas, 12 L/min and 300 °C; nebulizer gas, 30 psi; sheath gas, 12 L/min and 300 °C. Mass spectra were acquired in negative ion auto MS/MS mode (F, 135 V; CE, 25 eV) with full scan range of m/z (100–1000) and mass scan rate of 8 spectra/s. Metabolites were identified using Agilent MassHunter Metabolite ID software (version B.04.00) (Santa Clara, CA, USA). Chromatograms and mass spectra of the parent and identified metabolites were extracted using Agilent MassHunter Qualitative Analysis software (version B.05.00) (Santa Clara, CA, USA).
# [3] = Metabolic stability in human liver S9 fraction; assay type: in vitro ADME; details: for t1/2 / half-life at 1 µM: 1 μM
# Procedure: (§3) The metabolic stability of SP-8356 was investigated using rat, dog and human liver S9 fractions fortified with cofactors for major drug metabolism. The final reaction mixture contained 1 mg/mL rat, dog or human liver S9 fraction, 1 mM cofactors (NADPH, UDPGA, PAPS, SAM and GSH), 2 mM MgCl2, 25 µg/mL alamethicin and 1 µM SP-8356 in final volume of 200 µL. The metabolic reactions were initiated by adding 10 mM cofactor solution to reaction mixtures preincubated for 5 min at 37 °C. The reactions were terminated at (0, 5, 15, 30 and 60) min by the addition of 200 µL ice-cold acetonitrile containing HSDH (1 µg/mL). The subsequent sample preparation and analytical methods were the same as those described in Section 4.5.
# (§4) The degradation t1/2 of SP-8356 was calculated using the following Equation:(1) t1/2=0.693/k, where, k was the first-order rate constant calculated by one phase decay nonlinear regression using GraphPad Prism™ 7 (GraphPad Software, La Jolla, CA, USA). CLint was calculated using the following Equation:(2) CLint=k/fu,S9· mL incubation/mg liver S9· mg S9/g liver·g liver/kg body wt.
# (§5) The scaling factors were (136, 120.7 and 120.7) mg S9 protein/g liver and (40, 32 and 26) g liver/kg body weight for rats, dogs and humans, respectively. For simplicity, the fraction unbound in S9 incubation (fu, S9) was assumed to be one. CLH was predicted using the hepatic well-stirred model, as follows:(3) CLH=QH·fu·CLint/QH+fu·CLint, where, QH was the hepatic blood flow of (55, 30 and 20) mL/min/kg for rats, dogs and humans, respectively. The fraction unbound (fu) was assumed to be one. EH was calculated using the following Equation:(4) EH=CLH/QH.
# [4] = Metabolic stability in dog liver S9 fraction; assay type: in vitro ADME
# Procedure: as §3, §4, §5
# [5] = system: mouse xenograft model of triple-negative breast cancer; design: method as in PMID 31036845; details: in mice ref 10; cited from earlier work
# [6] = In vivo metabolite identification, pooled dog plasma (Q-TOF LC-MS/MS); details: i.v. SP-8356 50 mg/kg
# Procedure: as §1, §2
# [7] = design: method as in PMID 31036845; details: mice, intraperitoneal administration ref 10; cited from earlier work
# [8] = % versus total AUClast of parent and all detected metabolites
# [9] = AR = peak area ratio versus internal standard
compound,measurement,setting,value
"COc1cc(/C=C/C2=CC(=O)[C@H]3C[C@@H]2C3(C)C)cc(O)c1O [SP-8356, (1S,5R)-4-((E)-3,4-dihydroxy-5-methoxystryryl)-6,6-dimethylbicylco[3.1.1]hept-3-en-2-one]","remaining at 1 h, 5 µM","[1]; pH 7.4, cofactors: AA (1 mM)",106 ± 2.6%
same,"remaining at 1 h, 5 µM","[1]; pH 7.4, cofactors: GSH (1 mM)",29.1 ± 6.9%
same,"remaining at 1 h, 5 µM","[1]; pH 7.4, cofactors: GSH + AA",92.1 ± 1.7%
same,"remaining at 1 h, 5 µM","[1]; pH 7.4, cofactors: GSH + NADPH",18 ± 1.9%
same,"remaining at 1 h, 5 µM","[1]; pH 7.4, cofactors: GSH + UDPGA + PAPS + SAM",1.3 ± 0.2%
same,"remaining at 1 h, 5 µM","[1]; pH 7.4, cofactors: NADPH (1 mM)",21.6 ± 2%
same,"remaining at 1 h, 5 µM","[1]; pH 7.4, cofactors: None",~20%
same,SP-8356 (% Remaining at 60 min),"[1]; cofactors: None, 5 μM",20.3 ± 1.9%
same,AUClast (%),[2]; [8],26.48%
same,AUClast (AR∙h) × 10^2,[2]; [9],36.22 (AR∙h) × 10^2
same,t1/2,"[3]; human liver S9, +Cofactors (NADPH, UDPGA, PAPS, SAM, GSH)",2.1 min
same,t1/2,"[3]; human liver S9, −Cofactors",24.1 min
same,CLH,"[3]; human, +Cofactors, predicted by well-stirred model",1.18 L/h/kg
same,half-life at 1 µM,"[3]; human, liver S9 fraction, human liver S9, +Cofactors (NADPH, UDPGA, PAPS, SAM, GSH)",< 3 min
same,half-life at 1 µM,"[3]; human, liver S9 fraction, human liver S9, −Cofactors",< 30 min
same,CLint scaled at 1 µM,"[3]; liver S9 fraction, human liver S9, +Cofactors",62.1 L/h/kg
same,half-life at 1 µM,"[4]; Beagle, dog, liver S9 fraction, dog liver S9, −Cofactors, 1 μM",< 30 min
same,CLint scaled at 1 µM,"[4]; Beagle, liver S9 fraction, dog liver S9, +Cofactors",146 L/h/kg
same,t1/2,"[4]; dog liver S9, −Cofactors, 1 μM",20.7 min
same,CLH,"[4]; dog, +Cofactors, predicted by well-stirred model",1.78 L/h/kg
same,anti-breast cancer activity,[5],potent anti-breast cancer effect
same,AUClast (%),[6]; [8],17.66%
same,AUClast (AR∙h) × 10^2,[6]; [9],698.5 (AR∙h) × 10^2
same,plasma exposure,[7],Low plasma exposure
